The target in this experiment is topoisomerase II α (Homo sapiens, UniProt P11388). Kind of experiment: Topoisomerase II ATPase assay (coupled, NADH oxidation). In kind it is biochemical. Set-up: made in house; host or cells: yeast (over-expressing yeast cells). To be noted: for inhibition of ATPase activity in the presence of DTT, in words: 10 mM DTT in the reaction buffer. The procedure:
The reaction was monitored spectrophotometrically at 340 nm using a Bio-Tek EL808 Ultra Micro plate Reader connected to a computer with KC4 Software installed (Bio-Tek Instruments, U.S.). The change in absorbance was related to ADP production using A340^1M=6220 cm^−1. […] The rate of ATP hydrolysis, V, was determined from the linear part of the curve.
The steady-state rate of ATP hydrolysis was determined using a coupled ATPase assay as described herein. […] Error bars represent SEM of two independent experiments each performed in duplicate.
The steady-state rate of ATP hydrolysis was determined as described in for FIG. 3 and as described herein. In this analysis, the rate of ATP hydrolysis in the absence of drug was set to one in all experiments. Error bars represent SEM of 2 or 3 independent experiments each preformed in duplicate.

[1] abbreviates: measured in the absence of DTT, read-out: IC50.
[2] abbreviates: in the presence of DNA (DNA-stimulated), read-out: IC50, inhibition of ATPase activity.

Read-outs that look alike come from different tables or passages of the source.

Sequence of topoisomerase II α (P11388 whole entry): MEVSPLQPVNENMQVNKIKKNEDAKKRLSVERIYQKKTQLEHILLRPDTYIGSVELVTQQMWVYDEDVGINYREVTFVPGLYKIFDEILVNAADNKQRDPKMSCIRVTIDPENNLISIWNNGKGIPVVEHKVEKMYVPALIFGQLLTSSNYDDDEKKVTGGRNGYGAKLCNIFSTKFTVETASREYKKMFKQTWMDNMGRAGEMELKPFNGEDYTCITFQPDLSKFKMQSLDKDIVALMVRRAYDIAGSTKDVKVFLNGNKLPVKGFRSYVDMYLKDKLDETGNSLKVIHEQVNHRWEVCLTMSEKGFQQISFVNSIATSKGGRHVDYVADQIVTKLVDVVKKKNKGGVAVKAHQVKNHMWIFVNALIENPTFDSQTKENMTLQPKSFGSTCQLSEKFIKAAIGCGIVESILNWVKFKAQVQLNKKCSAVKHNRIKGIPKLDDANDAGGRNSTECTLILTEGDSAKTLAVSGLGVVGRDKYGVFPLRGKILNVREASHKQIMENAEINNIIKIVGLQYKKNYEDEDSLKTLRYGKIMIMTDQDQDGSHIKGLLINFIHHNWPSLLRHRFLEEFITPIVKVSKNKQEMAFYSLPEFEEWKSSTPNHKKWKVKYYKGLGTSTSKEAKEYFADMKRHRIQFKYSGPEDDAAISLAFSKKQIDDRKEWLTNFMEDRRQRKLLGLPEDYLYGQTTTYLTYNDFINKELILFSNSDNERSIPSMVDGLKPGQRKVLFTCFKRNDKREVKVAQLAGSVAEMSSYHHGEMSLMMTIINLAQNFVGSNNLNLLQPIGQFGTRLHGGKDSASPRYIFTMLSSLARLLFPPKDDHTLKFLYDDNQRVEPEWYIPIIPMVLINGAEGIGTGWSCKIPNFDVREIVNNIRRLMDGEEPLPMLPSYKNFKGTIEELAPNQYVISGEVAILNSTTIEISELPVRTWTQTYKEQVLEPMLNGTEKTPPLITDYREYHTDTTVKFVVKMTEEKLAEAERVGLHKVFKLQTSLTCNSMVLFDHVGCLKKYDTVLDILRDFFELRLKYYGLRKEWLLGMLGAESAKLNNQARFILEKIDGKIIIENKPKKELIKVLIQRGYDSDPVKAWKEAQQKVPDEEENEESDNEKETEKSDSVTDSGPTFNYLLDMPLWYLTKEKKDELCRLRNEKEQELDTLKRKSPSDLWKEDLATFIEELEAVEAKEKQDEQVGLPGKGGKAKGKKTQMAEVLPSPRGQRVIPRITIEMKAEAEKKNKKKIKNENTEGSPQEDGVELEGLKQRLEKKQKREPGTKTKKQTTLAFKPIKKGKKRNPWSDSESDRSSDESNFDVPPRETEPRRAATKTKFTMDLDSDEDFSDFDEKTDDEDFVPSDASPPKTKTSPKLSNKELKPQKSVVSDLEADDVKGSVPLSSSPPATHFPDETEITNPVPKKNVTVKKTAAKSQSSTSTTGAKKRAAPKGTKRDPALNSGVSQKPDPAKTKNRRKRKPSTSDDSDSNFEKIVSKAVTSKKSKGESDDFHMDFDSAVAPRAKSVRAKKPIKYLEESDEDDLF

Usually IC50 stands for the midpoint of a concentration-inhibition curve. Turning to `CNc1ncnc(Sc2nc(N)nc3[nH]cnc23)c1[N+](=O)[O-]` [NSC38732], the IC50 under setting [1] amounted to 34.1 µM.

On to `CCOC(=O)c1cc([N+](=O)[O-])c(Sc2ncnc3[nH]cnc23)c([N+](=O)[O-])c1` [NSC244708], for which the half-inhibitory concentration (IC50) under setting [1] was found to be 2.74 µM.

Take `CSc1nc(Cl)c(Br)c(Sc2nc(N)nc3[nH]cnc23)n1` [NSC52383]: the IC50 under setting [1] worked out at 12.7 µM.

Turning to `CCSc1nc(N)c(Br)c(Sc2nc(N)nc3[nH]cnc23)n1` [NSC52388], under setting [1], the IC50 was 36.4 µM.

As to `CCn1c(C)nc([N+](=O)[O-])c1Sc1nc(N)nc2[nH]cnc12` [NSC42375], under setting [1], the IC50 turned out to be 7.87 µM.

On to `Cc1ccc(CSc2nc(N)nc3[nH]cnc23)cc1` [NSC46384], for which the IC50 under setting [1] was 14.1 µM.

As to `CC(=O)OCSc1ncnc2c1ncn2CN1CCOCC1` [NSC647471], the half-maximal inhibitory concentration (IC50) under setting [1] amounted to 119 µM.

`O=[N+]([O-])c1ccc(Sc2ncnc3[nH]cnc23)c2nonc12` [NSC348402]: the IC50 under setting [1] was 0.777 µM.

For `Nc1nc2c(ncn2COCCO)c(=O)[nH]1` [acyclovir, 9-[(2-hydroxyethoxy)methyl]guanine, reference compound], the “inhibitory effect on ATPase reaction, in words” value (“inhibitory effect” below) (concentrations up to 300 μM) is given as “no inhibitory effect”.

With `COc1nc(N)nc2nc[nH]c12` [O^6-methylguanine, reference compound], the “inhibitory effect” value (concentrations up to 300 μM) is reported as “no detectable inhibitory effect”.

As for `Nc1nc2c(ncn2Cc2ccccc2)c(=O)[nH]1` [9-benzylguanine, reference compound], the “inhibitory effect” value (concentrations up to 300 μM) was “no inhibitory effect”.

For `Nc1nc(Cl)c2nc[nH]c2n1` [6-chloroguanine, reference compound], the “inhibitory effect” value (concentration not given) is given as “no inhibitory effect”.

On to `Nc1nc(Sc2cc([N+](=O)[O-])c3nonc3c2)c2ncn(C3OC(CO)C(O)C3O)c2n1` (stereo not shown) [NSC348400], for which, under setting [1], the 50% inhibitory concentration (IC50) was 0.389 µM.

For the compound `Cn1cnc([N+](=O)[O-])c1Sc1nc(N)nc2c1ncn2C1CC(O)C(CO)O1` (stereo not shown) [NSC172614], the IC50 under setting [1] worked out at 121 µM.

With `CCCCCSc1nc(N)nc2[nH]cnc12` [NSC35862], the concentration for half-maximal inhibition (IC50) under setting [1] came out at 85.4 µM.

On to `Nc1nc(OCC2CCCCC2)c2nc[nH]c2n1` [NU 2058, O^6-cyclohexylmethylguanine], for which the “inhibition of ATPase activity in the presence of DTT, in words” value is recorded as “could inhibit ATPase activity”. Further, under setting [2], the concentration for half-maximal inhibition (IC50) came out at 300 µM.

Turning to `Nc1nc(Sc2ccc([N+](=O)[O-])c3nonc23)c2[nH]cnc2n1` [NSC348401], the IC50 under setting [1] turned out to be 0.372 µM.

As for `Nc1nc(SCc2ccc(F)cc2)c2nc[nH]c2n1` [NSC35865], under setting [1], the half-inhibitory concentration (IC50) turned out to be 53.6 µM.

With `Nc1nc(SCCCc2ccccc2)c2nc[nH]c2n1` [NSC39328], the half-maximal inhibitory concentration (IC50) under setting [1] is 151 µM.

In the case of `N#CCSc1nc(N)nc2[nH]cnc12` [NSC39331], under setting [1], the half-maximal inhibitory concentration (IC50) was 19 µM.

With `Nc1nc(SCc2ccccc2)c2[nH]cnc2n1` [NSC15747], the IC50 under setting [1] was determined as 13.4 µM.

Regarding `Nc1nc(OCc2ccccc2)c2nc[nH]c2n1` [O^6-benzylguanine], the “inhibition of ATPase activity in the presence of DTT, in words” value is on record as “could inhibit ATPase activity”. In addition, the IC50 under setting [2] was found to be 1000 µM.

`Nc1nc(SC/C=C/c2ccccc2)c2nc[nH]c2n1` [NSC36824]: the half-inhibitory concentration (IC50) under setting [1] turned out to be 68.9 µM.

The values are drawn from patent US20090209535A1, “6-ETHER/THIOETHER-PURINES AS TOPOISOMERASE II CATALYTIC INHIBITORS AND THEIR USE IN THERAPY” (TOPOTARGET A/S, priority 2005, published 2009).
